PubChem BioAssay (NCI)
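These data come from cells grown in 96-well plates and exposed to compound for 48 hours at five concentrations. Abbreviation: GI50, concentration required for 50% inhibition of growth. Definition used: TGI = concentration required for complete inhibition of growth.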

Tests used:
Test in all cases: NCI anticancer screen, dose series, 48 h
SR leukemia = tested on: SR leukemia
OVCAR-3 ovarian = tested on: OVCAR-3 ovarian
CCRF-CEM leukemia = tested on: CCRF-CEM leukemia
SF-268 CNS = tested on: SF-268 CNS
HS 578T breast = tested on: HS 578T breast
KM12 colon = tested on: KM12 colon
SK-MEL-2 melanoma = tested on: SK-MEL-2 melanoma
ACHN renal = tested on: ACHN renal
A549 NSCLC = tested on: A549 NSCLC
SF-295 CNS = tested on: SF-295 CNS
OVCAR-8 ovarian = tested on: OVCAR-8 ovarian
HOP-62 NSCLC = tested on: HOP-62 NSCLC
OVCAR-5 ovarian = tested on: OVCAR-5 ovarian
UACC-257 melanoma = tested on: UACC-257 melanoma
MOLT-4 leukemia = tested on: MOLT-4 leukemia
TK-10 renal = tested on: TK-10 renal
NCI-H23 lung = tested on: NCI-H23 lung
SF-539 CNS = tested on: SF-539 CNS
M14 melanoma = tested on: M14 melanoma
HT29 colon = tested on: HT29 colon
UO-31 renal = tested on: UO-31 renal
SW-620 colon = tested on: SW-620 colon
LOX IMVI melanoma = tested on: LOX IMVI melanoma
A498 renal = tested on: A498 renal
K-562 leukemia = tested on: K-562 leukemia
OVCAR-4 ovarian = tested on: OVCAR-4 ovarian
HOP-92 NSCLC = tested on: HOP-92 NSCLC
SK-MEL-5 melanoma = tested on: SK-MEL-5 melanoma
U251 CNS = tested on: U251 CNS
HL-60(TB) leukemia = tested on: HL-60(TB) leukemia
786-0 renal = tested on: 786-0 renal
PC-3 prostate = tested on: PC-3 prostate
RPMI-8226 leukemia = tested on: RPMI-8226 leukemia
HCT-15 colon = tested on: HCT-15 colon
HCC-2998 colon = tested on: HCC-2998 colon
NCI-H460 lung = tested on: NCI-H460 lung
EKVX NSCLC = tested on: EKVX NSCLC
SK-MEL-28 melanoma = tested on: SK-MEL-28 melanoma
SNB-75 CNS = tested on: SNB-75 CNS
NCI-H226 lung = tested on: NCI-H226 lung
MDA-MB-231 breast = tested on: MDA-MB-231 breast
NCI-H522 lung = tested on: NCI-H522 lung
NCI/ADR-RES ovarian = tested on: NCI/ADR-RES ovarian
HCT-116 colon = tested on: HCT-116 colon
SK-OV-3 ovarian = tested on: SK-OV-3 ovarian
SNB-19 CNS = tested on: SNB-19 CNS
UACC-62 melanoma = tested on: UACC-62 melanoma
DU-145 prostate = tested on: DU-145 prostate
BT-549 breast = tested on: BT-549 breast
RXF 393 renal = tested on: RXF 393 renal
CAKI-1 renal = tested on: CAKI-1 renal
T-47D breast = tested on: T-47D breast
MCF7 breast = tested on: MCF7 breast
MALME-3M melanoma = tested on: MALME-3M melanoma
IGROV1 ovarian = tested on: IGROV1 ovarian
COLO 205 colon = tested on: COLO 205 colon
SN12C renal = tested on: SN12C renal

## Cc1ccc(C2=NN(c3ccc(S(C)(=O)=O)cc3)C(=O)CC2)cc1
SR leukemia
  GI50: 0.4 µM
  TGI: > 100 µM
OVCAR-3 ovarian
  GI50: 0.349 µM
  TGI: 2.35 µM
CCRF-CEM leukemia
  GI50: 0.843 µM
  TGI: > 100 µM
SF-268 CNS
  GI50: 6.25 µM
  TGI: > 100 µM
HS 578T breast
  GI50: 2.24 µM
  TGI: > 100 µM
KM12 colon
  GI50: 0.452 µM
  TGI: > 100 µM
SK-MEL-2 melanoma
  GI50: 0.541 µM
  TGI: > 100 µM
ACHN renal
  GI50: 8.52 µM
  TGI: > 100 µM
A549 NSCLC
  GI50: 0.615 µM
  TGI: > 100 µM
SF-295 CNS
  GI50: 0.396 µM
  TGI: 16.8 µM
OVCAR-8 ovarian
  GI50: 1.35 µM
  TGI: > 100 µM
HOP-62 NSCLC
  GI50: 1.78 µM
  TGI: > 100 µM
OVCAR-5 ovarian
  GI50: 10.1 µM
  TGI: > 100 µM
UACC-257 melanoma
  GI50: 3.4 µM
  TGI: > 100 µM
MOLT-4 leukemia
  GI50: 0.875 µM
  TGI: > 100 µM
TK-10 renal
  GI50: 12.8 µM
  TGI: > 100 µM
NCI-H23 lung
  GI50: 2.13 µM
  TGI: > 100 µM
SF-539 CNS
  GI50: 1.45 µM
  TGI: 23.4 µM
M14 melanoma
  GI50: 0.419 µM
  TGI: > 100 µM
HT29 colon
  GI50: 0.349 µM
  TGI: > 32.9 µM
UO-31 renal
  GI50: 7.85 µM
  TGI: > 100 µM
SW-620 colon
  GI50: 0.368 µM
  TGI: > 100 µM
LOX IMVI melanoma
  GI50: 0.806 µM
  TGI: > 100 µM
A498 renal
  GI50: 0.282 µM
  TGI: 7.73 µM
K-562 leukemia
  GI50: 0.408 µM
  TGI: > 100 µM
OVCAR-4 ovarian
  GI50: > 27.3 µM
  TGI: > 100 µM
HOP-92 NSCLC
  GI50: 1.02 µM
  TGI: > 28.8 µM
SK-MEL-5 melanoma
  GI50: 0.633 µM
  TGI: > 42.1 µM
U251 CNS
  GI50: 0.579 µM
  TGI: > 100 µM
HL-60(TB) leukemia
  GI50: 0.525 µM
786-0 renal
  GI50: 7.26 µM
  TGI: > 100 µM
PC-3 prostate
  GI50: 1.78 µM
  TGI: > 100 µM
RPMI-8226 leukemia
  GI50: 1.62 µM
  TGI: > 100 µM
HCT-15 colon
  GI50: 0.74 µM
  TGI: > 100 µM
HCC-2998 colon
  GI50: 3.1 µM
  TGI: > 100 µM
NCI-H460 lung
  GI50: 0.402 µM
  TGI: > 100 µM
EKVX NSCLC
  GI50: 3.84 µM
  TGI: > 100 µM
SK-MEL-28 melanoma
  GI50: 2.58 µM
  TGI: > 100 µM
SNB-75 CNS
  GI50: 0.542 µM
  TGI: 9.25 µM
NCI-H226 lung
  GI50: 42.3 µM
  TGI: > 100 µM
MDA-MB-231 breast
  GI50: 1.37 µM
  TGI: > 100 µM
NCI-H522 lung
  GI50: 0.225 µM
  TGI: 1.04 µM
NCI/ADR-RES ovarian
  GI50: 0.322 µM
  TGI: > 100 µM
HCT-116 colon
  GI50: 0.431 µM
  TGI: > 85.4 µM
SK-OV-3 ovarian
  GI50: 1.57 µM
  TGI: 21.5 µM
SNB-19 CNS
  GI50: 6.42 µM
  TGI: > 100 µM
UACC-62 melanoma
  GI50: 0.493 µM
  TGI: > 100 µM
DU-145 prostate
  GI50: 2.48 µM
  TGI: > 100 µM
BT-549 breast
  GI50: 0.569 µM
  TGI: > 100 µM
RXF 393 renal
  GI50: 1.11 µM
  TGI: > 26.1 µM
CAKI-1 renal
  GI50: 1.64 µM
  TGI: > 100 µM
T-47D breast
  GI50: 3.82 µM
  TGI: > 100 µM
MCF7 breast
  GI50: 1.3 µM
  TGI: > 100 µM
MALME-3M melanoma
  GI50: 51.9 µM
  TGI: > 100 µM
IGROV1 ovarian
  GI50: 1.82 µM
  TGI: > 100 µM
COLO 205 colon
  GI50: 0.587 µM
  TGI: 5.16 µM
SN12C renal
  GI50: 5.57 µM
  TGI: > 100 µM

## Nc1nc2cc(O)ccc2n2cc3c(F)cccc3c12
SR leukemia
  GI50: 0.462 µM
  TGI: 32.8 µM
OVCAR-3 ovarian
  GI50: 6.21 µM
  TGI: > 100 µM
CCRF-CEM leukemia
  GI50: 2.28 µM
  TGI: > 100 µM
SF-268 CNS
  GI50: 1.98 µM
  TGI: > 100 µM
HS 578T breast
  GI50: 3.68 µM
  TGI: > 100 µM
KM12 colon
  GI50: 0.654 µM
  TGI: > 100 µM
SK-MEL-2 melanoma
  GI50: 3.76 µM
  TGI: > 100 µM
ACHN renal
  GI50: 1.85 µM
  TGI: > 100 µM
A549 NSCLC
  GI50: 1.27 µM
  TGI: > 100 µM
SF-295 CNS
  GI50: 2.46 µM
  TGI: > 100 µM
OVCAR-8 ovarian
  GI50: 3.47 µM
  TGI: > 100 µM
HOP-62 NSCLC
  GI50: 2.14 µM
  TGI: > 100 µM
OVCAR-5 ovarian
  GI50: 9.85 µM
  TGI: > 100 µM
UACC-257 melanoma
  GI50: 4.37 µM
  TGI: > 100 µM
MOLT-4 leukemia
  GI50: 1.51 µM
  TGI: > 100 µM
TK-10 renal
  GI50: > 20.9 µM
  TGI: > 100 µM
NCI-H23 lung
  GI50: 3.91 µM
  TGI: > 100 µM
SF-539 CNS
  GI50: 1.31 µM
  TGI: > 100 µM
M14 melanoma
  GI50: 1.24 µM
  TGI: > 100 µM
HT29 colon
  GI50: 4.46 µM
  TGI: > 100 µM
UO-31 renal
  GI50: 0.917 µM
  TGI: > 79.8 µM
SW-620 colon
  GI50: 0.493 µM
  TGI: > 100 µM
LOX IMVI melanoma
  GI50: 1.02 µM
  TGI: > 100 µM
A498 renal
  GI50: 10.1 µM
  TGI: > 100 µM
K-562 leukemia
  GI50: 0.447 µM
  TGI: > 100 µM
OVCAR-4 ovarian
  GI50: 6.81 µM
  TGI: > 100 µM
HOP-92 NSCLC
  GI50: 2.43 µM
  TGI: > 85.6 µM
SK-MEL-5 melanoma
  GI50: 0.334 µM
  TGI: > 100 µM
U251 CNS
  GI50: 2.64 µM
  TGI: > 100 µM
HL-60(TB) leukemia
  GI50: 1.23 µM
  TGI: > 100 µM
786-0 renal
  GI50: 3.56 µM
  TGI: > 100 µM
PC-3 prostate
  GI50: 3.67 µM
  TGI: > 100 µM
RPMI-8226 leukemia
  GI50: 3.37 µM
  TGI: > 100 µM
HCT-15 colon
  GI50: 0.62 µM
  TGI: > 100 µM
HCC-2998 colon
  GI50: > 20.4 µM
  TGI: > 100 µM
NCI-H460 lung
  GI50: 0.402 µM
  TGI: > 100 µM
EKVX NSCLC
  GI50: 3.38 µM
  TGI: > 100 µM
SK-MEL-28 melanoma
  GI50: 4.86 µM
  TGI: > 100 µM
SNB-75 CNS
  GI50: 1.44 µM
  TGI: 7.34 µM
NCI-H226 lung
  GI50: 2.97 µM
  TGI: > 100 µM
MDA-MB-231 breast
  GI50: 4.74 µM
  TGI: > 100 µM
NCI-H522 lung
  GI50: 1.22 µM
  TGI: > 100 µM
NCI/ADR-RES ovarian
  GI50: 0.964 µM
  TGI: > 100 µM
HCT-116 colon
  GI50: 0.724 µM
  TGI: > 100 µM
SK-OV-3 ovarian
  GI50: 2.37 µM
  TGI: > 100 µM
SNB-19 CNS
  GI50: 2.31 µM
  TGI: > 100 µM
UACC-62 melanoma
  GI50: 1.23 µM
  TGI: > 100 µM
DU-145 prostate
  GI50: 6.38 µM
  TGI: > 100 µM
BT-549 breast
  GI50: 6.92 µM
  TGI: > 100 µM
RXF 393 renal
  GI50: 1.75 µM
  TGI: 26.8 µM
CAKI-1 renal
  GI50: 0.733 µM
  TGI: > 93.1 µM
T-47D breast
  GI50: 5.89 µM
  TGI: > 100 µM
MCF7 breast
  GI50: 1.26 µM
  TGI: > 100 µM
MALME-3M melanoma
  GI50: 3.78 µM
  TGI: > 100 µM
IGROV1 ovarian
  GI50: 1.67 µM
  TGI: > 100 µM
COLO 205 colon
  GI50: 5.86 µM
  TGI: > 100 µM
SN12C renal
  GI50: 2.22 µM
  TGI: > 100 µM
